Laboratory results reported in patent US20220265635A1, “TREATMENT OF NEUROLOGICAL DISEASE” (Aclipse One Inc., priority 2018, published 2022).

Columns and labels:
NRF2 = assay: Example 2 in vivo pharmacodynamic study via subcutaneous dosing, cortex: expression of genes upregulated by NRF2 activation; conditions: wildtype mouse cortex, 5 mg/kg s.c. once daily 7 days, compared to Gapdh
Method: Wildtype mice (3 per group) were dosed subcutaneously at 0, 0.5, 1.5, 5 and 10 mg/kg (6aS)-6-methyl-5,6,6a,7-tetrahydro-4H-dibenzo[de,g]quinoline-10,11-diol hydrochloride for 7 days once daily. One animal in the 10 mg/kg dosing group was actually dosed 15 mg/kg on Day 1. To prepare the dosing solutions, (6aS)-6-methyl-5,6,6a,7-tetrahydro-4H-dibenzo[de,g]quinoline-10,11-diol was pre-weighed into bijous and stored in foil.

TDP-43^Q331K mouse model [1] = assay: Example 4 catwalk gait analysis; type: in vivo; conditions: TDP-43^Q331K mice
Method: (§1) Following genotyping, transgenic females were block randomized into three different dosing groups: vehicle once daily, 2.5 mg/kg (6aS)-6-methyl-5,6,6a,7-tetrahydro-4H-dibenzo[de,g]quinoline-10,11-diol twice daily and 5 mg/kg (6aS)-6-methyl-5,6,6a,7-tetrahydro-4H-dibenzo[de,g]quinoline-10,11-diol once daily. The doses were selected based on results of previous internal studies. Animals were weighed daily before dosing and dosed subcutaneously at 10 ml/kg with a solution of 0.5 mg/ml (6aS)-6-methyl-5,6,6a,7-tetrahydro-4H-dibenzo[de,g]quinoline-10,11-diol for the 5 mg/kg dose and 0.25 mg/ml for the 2.5 mg/kg dose. Where animals were dosed twice a day, the doses were at least 6 hours apart and the dosing solution was freshly made for the second dose of the day.
(§2) The study was designed with two main cohorts of mice. One cohort was dosed from 25 days of age until 6 months of age and mice had behavioral testing throughout the study and consisted of 14 mice per group. The other satellite cohort was dosed from 25 days of age until 3 months of age, with no behavioral testing and consisted of 6 mice per group for target engagement and histological assessment. Behavioral tests that were carried out during the experiment were: accelerated rotarod test, gait analysis, and electrophysiology.
Gait analysis was carried out at 3 months and 6 months of age using the catwalk gait analysis system 7.1 (Noldus Information Technology B.V., Netherlands) and analyzed using Catwalk software 7.1. The software calculated many different gait parameters such as stride length, base of support (BOS) and swing time as well as step patterns and percentage of time spent on 2, 3 or 4 paws.
On the day of the test mice were placed on the glass runway and allowed to run freely back and forth. About 6 straight, consistent runs were recorded by the camera for each mouse. The 3 best runs with the closest total run time were selected for each mouse for analysis. For these three runs, the paw prints were labelled in successive frames using the software, which then analyzed multiple gait parameters for each of the runs. Using Excel, the average of all three runs per mouse was calculated, followed by the average per group for each of the gait parameters.
Gait analysis was performed using the catwalk system (Noldus) at both 3 and 6 months of age in 8 mice per group per timepoint. Traditionally in this model, the base of support increases with age, as shown in FIG. 9-13, represented the waddling or ‘swimming’ gait described in this strain.

TDP-43^Q331K mouse model [2] = assay: Example 4 electrophysiology: compound muscle action potential (CMAP); type: in vivo; conditions: TDP-43^Q331K mice
Method: as §1, §2
Electrophysiological assessment of compound action muscle potential (CMAP) and repetitive stimulation was carried out at 6 weeks, 3 months and 6 months of age.
Mice were anesthetized using gaseous isoflurane and then maintained under gaseous anesthesia using a nose cone for the duration of the experiment. Body temperature was maintained with a heat pad. The fur from the lower left limb was removed using an electric razor followed by hair removal cream in order to allow skin contact of the ring electrodes. Ring electrodes were covered in electrical paste and were placed around the ankle and thigh area of the shaved limb. The rings were tightened so that there were no air gaps between the skin and electrodes but not so tight that blood flow was altered. A grounding electrode was placed into the base of the tail and stimulating electrodes were placed higher on the leg as near as possible to the sciatic nerve.
CMAPs were acquired by pulsing an electrical wave of […] duration to the sciatic notch. The position of the electrodes was tested prior to the final pulse in order to make sure they were placed correctly by visualizing the outcome of the pulse. The stimulation current was then increased until no further increase in CMAP was seen.

With CN1CCc2cccc3c2[C@@H]1Cc1ccc(O)c(O)c1-3 [(6aS)-6-methyl-5,6,6a,7-tetrahydro-4H-dibenzo[de,g]quinoline-10,11-diol] the Gclm gene induction (NRF2; 6 hours post final dose) was 1.51 fold, the Hmox1 gene induction (NRF2; 6 hours post final dose) was 2.02 fold and the Nqo1 gene induction (NRF2; 6 hours post final dose) was 1.04 fold. It also gave a Nrf1 gene induction (NRF2; 6 hours post final dose) of 2.39 fold, a Pgc1a gene induction (NRF2; 6 hours post final dose) of 1.71 fold and a Gclm gene induction (NRF2; 24 hours post final dose) of 1.45 fold. The Hmox1 gene induction (NRF2; 24 hours post final dose) was 2.11 fold, the Nqo1 gene induction (NRF2; 24 hours post final dose) was 1.32 fold and the Nrf1 gene induction (NRF2; 24 hours post final dose) was 1.58 fold. For the same compound, the Pgc1a gene induction (NRF2; 24 hours post final dose) was 1.70 fold, the “gait parameters (time spent on diagonal paws, on three or four paws) from 3 to 6 months” value (TDP-43^Q331K mouse model [1]; 2.5 mg/kg dosing group) was “relatively stable” and the “change in percentage of time spent on 3 paws between 3 months and 6 months of age, compared to vehicle” value (TDP-43^Q331K mouse model [1]; 2.5 mg/kg twice daily) was “significant decrease”. For the same compound, the “change in percentage of time spent on diagonal paws between 3 months and 6 months of age” value (TDP-43^Q331K mouse model [1]; 2.5 mg/kg twice daily, significant difference to vehicle, which has a decrease) was “slight increase”, the “gait parameters (time spent on diagonal paws, on three or four paws) from 3 to 6 months” value (TDP-43^Q331K mouse model [1]; 5 mg/kg dosing group) was “relatively stable” and the “effect on swimming gait (base of support increasing with age)” value (TDP-43^Q331K mouse model [1]; 3 and 6 months of age) was “did not limit this swimming gait”. The “relative CMAP at 6 months (based on individual CMAP at 3 months) compared to the vehicle group” value (TDP-43^Q331K mouse model [2]; 2.5 mg/kg dosing group) was “significant improvement”, the “relative CMAP at 6 months (based on individual CMAP at 3 months) compared to the vehicle group” value (TDP-43^Q331K mouse model [2]; 5 mg/kg dosing group) was “significant improvement” and the “CMAP compared to the vehicle dosing group” value (TDP-43^Q331K mouse model [2]; 3 months of age, 5 mg/kg dosing group) was “significant decrease”. The “CMAP compared to vehicle dosed animals” value (TDP-43^Q331K mouse model [2]; 6 months of age, both dosing groups (2.5 mg/kg twice daily, 5 mg/kg once daily)) was “significant increase” and the “CMAP, between the different dosing groups” value (TDP-43^Q331K mouse model [2]; 6 weeks of age) was “no significant difference”.
